Results from patent publication US20220204502A1, “CRYSTAL POLYMORPHISM OF PI3K INHIBITOR AND METHOD FOR PREPARING SAME” (BORYUNG PHARMACEUTICAL CO., LTD, priority 2019, published 2022).

What was measured:
[1] = Hygroscopicity (Dynamic Vapor Sorption, DVS) measurement; type: physicochemical; conditions: 25° C.; for hygroscopicity (overall assessment): DVS 0 to 95 % RH
Method: The hygroscopicity was tested by using the crystal form I of above Example 8.
i) Model name: DVS Intrinsic (Surface Measurement Systems LTD. UK)
ii) Humidity: Initial 0% maximum 95%
iii) Experiment time: 7 hours
After placing a certain amount (10 mg) of the crystal form I compound prepared in Example 8 on a sample pan in a sample chamber, nitrogen was flowed through a tube connected into the sample chamber for the first one hour so as to remove moisture in the chamber and moisture of the sample. Humidity in the chamber was controlled by controlling water vapor, and target relative humidity was increased step by step from initial 0% to 10% every 20 minutes, so as to measure a moisture content of crystal form I for 205 min. A mass of the sample was measured […] (from 0% RH to 95% RH) to collect data at 10% RH intervals, and a change in weight of the sample according to the increase and decrease of humidity was graphed.

[2] = Pharmacokinetic (PK) test, oral capsule in beagle dog; type: in vivo; conditions: 100 mg oral, powder in capsule
Method: A pharmacokinetic (PK) experiment was performed on the crystal form I compound according to Example 8.
The powder of the crystal form I compound of Example 8 was filled into a capsule in an amount of 100 mg, and the capsule was orally administered to a beagle dog at 100 mg once a day, and then the biokinetics of the drug was confirmed.
Specifically, 100 mg of the crystal form I compound was orally administered to the beagle dog, and blood was collected at a predetermined time, so as to measure a concentration of (S)-4-((1-(4,8-dichloro-1-oxo-2-phenyl-1,2-dihydroisoquinoline-3-yl)ethyl)amino)pyrido[2,3-d]pyrimidine-5(8H)-one. With respect to pharmacokinetic parameters, the BA Calc 2007 program was used to calculate an area under the plasma concentration-time curve from dosing time to final plasma concentration quantification time t (AUCt), area under the plasma concentration-time curve from dosing time to infinite time (AUCi), peak plasma concentration (Cmax), time for maximum plasma concentration (Tmax), and terminal elimination half-life (t1/2). As a result, a significance between substances was confirmed by Student t-test (SPSS) at a 95% confidence interval, and the results thereof are shown in table 2 below.

[3] = Accelerated stability test (HPLC impurities, content, crystal form); type: physicochemical; conditions: for Crystal form / Content / Individual impurity / Total impurity: 4θ±2° C. and RH 75±5%; for Content / Individual impurity / Total impurity: wt %
Method: The powder of the crystal form I compound according to above Example 8 was doubly packed with an LDPE bag, then packed with a paperboard tube, and left alone at 4θ±2° C. and RH 75±5% for zero and six months, after which impurities were measured by using a high speed liquid chromatography under the following conditions.
<HPLC Conditions> • Detector: Ultraviolet absorption spectrophotometer (wavelength: 307 nm) • Column: Kromasil 100-5C18 (4.6×250 mm, […]) or a column similar thereto • Column temperature: 25° C. • Injection amount: 10 μl • Mobile phase: Mobile phase A—20 mmol/L of ammonium acetate buffer solution (pH 4.5, acetic acid), Mobile phase B—acetonitrile:methanol=8:2

Long-term stability test = type: physicochemical; conditions: for Content / Individual impurity / Total impurity / Crystal form: 25±2° C. and RH 6θ±5%; for Content / Individual impurity / Total impurity: capsule in PTP packing, wt %
Method: The powder of the crystal form I compound according to above Example 8 was doubly packed with an LDPE bag, then packed with a paperboard tube, and filled into a capsule, after which the capsule was subjected to PTP packing to carry out a long-term stability test (25±2° C. and RH 6θ±5%).

[4] = Stress stability test (temperature / humidity); type: physicochemical; conditions: for Content / Individual impurity / Total impurity: wt %
Method: The crystal form I prepared in above Example 8 was left alone under the stress conditions (temperature: 60° C., humidity: 40° C., RH75%) for 0, 7 and 14 days, after which impurities were measured by using high speed liquid chromatography.

[5] = stress: humidity (40° C., RH75%), 7 days
[6] = stress: humidity (40° C., RH75%), 14 days
[7] = stress: humidity (40° C., RH75%), zero day (initial)
[8] = stress: temperature (60° C.), 7 days
[9] = stress: temperature (60° C.), 14 days
[10] = stress: temperature (60° C.), zero day (initial)

With `C[C@H](Nc1ncnc2[nH]ccc(=O)c12)c1c(Cl)c2cccc(Cl)c2c(=O)n1-c1ccccc1` [Crystal form I, (S)-4-((1-(4,8-dichloro-1-oxo-2-phenyl-1,2-dihydroisoquinoline-3-yl)ethyl)amino)pyrido[2,3-d]pyrimidin-5(8H)-one] the “hygroscopicity (overall assessment)” value [1] was “non-hygroscopicity”, the “hygroscopicity (overall assessment)” value ([1]; listed as crystal form I) was “remarkably excellent non-hygroscopicity” and the water (moisture) content by DVS ([1]; relative humidity 0.0 %) was 0.01%. For the same compound, the water (moisture) content by DVS ([1]; relative humidity 10.0 %) was 0.06%, the water (moisture) content by DVS ([1]; relative humidity 20.0 %) was 0.11% and the water (moisture) content by DVS ([1]; relative humidity 30.0 %) was 0.16%. It also gave a water (moisture) content by DVS ([1]; relative humidity 40.0 %) of 0.2%, a water (moisture) content by DVS ([1]; relative humidity 50.0 %) of 0.24% and a water (moisture) content by DVS ([1]; relative humidity 60.0 %) of 0.28%. It also gave a water (moisture) content by DVS ([1]; relative humidity 70.0 %) of 0.33%, a water (moisture) content by DVS ([1]; relative humidity 80.0 %) of 0.38% and a water (moisture) content by DVS ([1]; relative humidity 90.0 %) of 0.46%. The water (moisture) content by DVS ([1]; relative humidity 95.0 %) was 0.54%, the “bioavailability (in words)” value [2] was “excellent bioavailability” and the “concentration in blood (in words)” value [2] was “high concentration in blood”. It also gave an AUC(0-inf) ([2]; plasma) of 559 ng·h/mL, an AUC(0-t) ([2]; plasma) of 540 ng·h/mL and a Cmax ([2]; plasma) of 215 ng/mL. For the same compound, the Tmax ([2]; plasma) was 1.25 h, the half-life ([2]; plasma) was 1.56 h and the Crystal form ([3]; six months) was “Form I”. It also gave a Content ([3]; six months) of 99.7%, an Individual impurity ([3]; six months) of 0.02% and a Total impurity ([3]; six months) of 0.16%. The Crystal form ([3]; zero month (initial)) was “Form I”, the Content ([3]; zero month (initial)) was 100.0% and the Individual impurity ([3]; zero month (initial)) was 0.02%. The Total impurity ([3]; zero month (initial)) was 0.14%, the “change of impurities and content (in words)” value (shortened to “change”) ([3]; accelerated conditions, six months) was “neither significant change nor change with time” and the Content (Long-term stability test; six months) was 99.7%. For the same compound, the Individual impurity (Long-term stability test; six months) was 0.02%, the Total impurity (Long-term stability test; six months) was 0.15% and the Content (Long-term stability test; zero month (initial)) was 100.0%. For the same compound, the Individual impurity (Long-term stability test; zero month (initial)) was 0.02%, the Total impurity (Long-term stability test; zero month (initial)) was 0.14% and the Crystal form (Long-term stability test; six months) was “Form I”. For the same compound, the Crystal form (Long-term stability test; zero month (initial)) was “Form I”, the “change” value (Long-term stability test; long-term conditions, six months) was “neither significant change nor change with time” and the “change” value ([4]; stress conditions, 0, 7 and 14 days) was “neither significant change nor change with time”. The Content [4, 5] was 99.6%, the Individual impurity [4, 5] was 0.58% and the Total impurity [4, 5] was 0.64%. The Content [4, 6] was 100.8%, the Individual impurity [4, 6] was 0.58% and the Total impurity [4, 6] was 0.65%. The Content [4, 7] was 99.1%, the Individual impurity [4, 7] was 0.58% and the Total impurity [4, 7] was 0.66%. The Content [4, 8] was 100.0%, the Individual impurity [4, 8] was 0.58% and the Total impurity [4, 8] was 0.64%. The Content [4, 9] was 99.7%, the Individual impurity [4, 9] was 0.58% and the Total impurity [4, 9] was 0.65%. The Content [4, 10] was 99.1%, the Individual impurity [4, 10] was 0.58% and the Total impurity [4, 10] was 0.66%.
